8 compounds from ChEMBL document CHEMBL1201862, “PubChem BioAssay data set” (2004) can be followed below.

One experiment addresses Cytochrome P450 3A4 (Homo sapiens, UniProt P08684). As to conditions: Potency.
In another experiment the target is Cytochrome P450 2C9 (Homo sapiens, UniProt P11712). Conditions: Potency.
Another experiment concerns the target Cytochrome P450 2D6 (Homo sapiens, UniProt P10635). The experiment is described as follows: qHTS Assay for Inhibitors and Substrates of Cytochrome P450 2D6. [Related pubchem assays: 410 ]. Format: ADME. Conditions: read-out: Potency. For orientation: qHTS replaces the single test concentration by a dilution series.
In experiment [1] the target is T1, SUMO-activating enzyme (Homo sapiens, UniProt Q9UBT2). The experiment is described as follows: blockers of SAE1/SAE2–UBC9 SUMO transfer – biochemical, HTRF, uHTS, primary screen (AID 2006). Format: protein-complex assay.
T1 sequence (Q9UBE0 whole entry): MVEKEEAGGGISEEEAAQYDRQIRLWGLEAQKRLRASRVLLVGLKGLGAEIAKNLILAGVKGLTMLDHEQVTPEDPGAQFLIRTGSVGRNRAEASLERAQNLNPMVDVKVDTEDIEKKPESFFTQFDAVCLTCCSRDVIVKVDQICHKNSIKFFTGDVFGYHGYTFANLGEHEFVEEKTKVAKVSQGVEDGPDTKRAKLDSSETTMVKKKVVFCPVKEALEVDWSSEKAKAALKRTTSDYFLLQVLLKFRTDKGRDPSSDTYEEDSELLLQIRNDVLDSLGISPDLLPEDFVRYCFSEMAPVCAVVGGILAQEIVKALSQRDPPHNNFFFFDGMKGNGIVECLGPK
T1 sequence (Q9UBT2 whole entry): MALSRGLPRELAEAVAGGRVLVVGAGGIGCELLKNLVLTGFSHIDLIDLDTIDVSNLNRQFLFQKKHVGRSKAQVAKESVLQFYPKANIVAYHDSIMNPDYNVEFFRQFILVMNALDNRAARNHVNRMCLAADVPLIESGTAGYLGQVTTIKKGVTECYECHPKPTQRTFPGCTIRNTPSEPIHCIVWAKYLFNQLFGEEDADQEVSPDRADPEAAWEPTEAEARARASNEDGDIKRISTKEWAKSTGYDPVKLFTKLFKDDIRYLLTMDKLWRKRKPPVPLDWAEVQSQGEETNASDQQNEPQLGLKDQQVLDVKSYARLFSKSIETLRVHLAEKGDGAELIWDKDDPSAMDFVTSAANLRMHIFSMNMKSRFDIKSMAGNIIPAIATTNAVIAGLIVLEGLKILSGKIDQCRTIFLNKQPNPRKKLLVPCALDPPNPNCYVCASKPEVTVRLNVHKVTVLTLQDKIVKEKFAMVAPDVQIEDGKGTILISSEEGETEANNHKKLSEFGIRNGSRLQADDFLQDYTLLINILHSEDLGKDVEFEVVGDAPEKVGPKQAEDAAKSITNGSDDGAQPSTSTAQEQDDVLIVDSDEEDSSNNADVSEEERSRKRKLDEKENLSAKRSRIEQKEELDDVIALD
Experiment [2] relates to HEK293. As to the kind of experiment: cells. Format: functional, cell-based. As to conditions: Homo sapiens.
For experiment [3], the target named is T1, SUMO-activating enzyme. As to the kind of experiment: blockers of UBC9-mediated SUMO conjugation – biochemical, AlphaScreen, SUMOylation inhibitor project, confirmation (AID 2018). Format: functional. On the technique in general: Alpha assays give light when donor and acceptor beads are brought close together.
The test system of experiment [4] is HEK293. As to the kind of experiment: inhibition of NOD1-driven NF-kB reporter – cell-based, luminescence, uHTS, primary screen (AID 1578). Format: functional. As to conditions: Homo sapiens.
Experiment [5] deals with HEK293. As to the kind of experiment: cells. Conditions: Homo sapiens. Format: functional, cell-based. This is another data set of the same source.
Experiment [6] deals with HEK293. The experiment is described as follows: NOD2 signaling inhibitors in MDP-stimulated cells, cell-based, uHTS, luminescence (AID 2001). The format is functional. As to conditions: Homo sapiens.
A further experiment concerns the target Troponin, cardiac muscle (Homo sapiens, UniProt P19429+P45379+P63316). As to the kind of experiment: Fluorescence-based biochemical high throughput dose response assay for activators of the calcium sensitivity of cardiac Regulated Thin Filaments (RTF). [Related pubchem assays (depositor defined):AID493008, AID493018, AID504382, AID504383]. Format: protein-complex assay.

Experiment [7] addresses T2, Mu-type opioid receptor (Homo sapiens, UniProt P35372). The experiment is described as follows: mu opioid receptor activators, image-based, SAR follow-up (AID 2352). Format: functional.
Experiment [8] addresses T3, Delta-type opioid receptor (Homo sapiens, UniProt P41143). The experiment is described as follows: delta opioid receptor blockers – image-based, SAR follow-up (AID 2357). Format: functional.
Experiment [9] concerns the target T3, Delta-type opioid receptor. The experiment is described as follows: DOR agonists, SAR follow-up, image-based (AID 2370). Format: functional.
In experiment [10] the target is T4, Kappa-type opioid receptor (Homo sapiens, UniProt P41145). As to the kind of experiment: kappa opioid receptor activation potency – imaging, image-based, SAR follow-up (AID 2359). The format is functional.
T4 sequence (P41145 whole entry): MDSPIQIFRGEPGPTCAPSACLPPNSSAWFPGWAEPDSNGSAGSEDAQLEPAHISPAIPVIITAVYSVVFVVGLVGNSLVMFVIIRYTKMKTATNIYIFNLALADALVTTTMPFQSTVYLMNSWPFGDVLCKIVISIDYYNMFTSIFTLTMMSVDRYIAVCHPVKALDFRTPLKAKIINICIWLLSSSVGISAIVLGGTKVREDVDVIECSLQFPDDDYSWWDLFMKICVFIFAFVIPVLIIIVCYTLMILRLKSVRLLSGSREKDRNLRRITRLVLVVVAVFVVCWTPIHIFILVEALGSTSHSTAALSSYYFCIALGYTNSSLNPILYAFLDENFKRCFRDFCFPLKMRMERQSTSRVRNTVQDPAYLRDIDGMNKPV
Experiment [11] concerns the target T2, Mu-type opioid receptor. As to the kind of experiment: mu opioid receptor blockers – image-based, SAR follow-up (AID 2420).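 Also: compounds added before stimulation of receptor with agonist DAMGO.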 The format is functional.
Experiment [12] deals with T4, Kappa-type opioid receptor. The experiment is described as follows: kappa opioid receptor blockers, image-based, SAR follow-up (AID 2348). The format is functional.
Experiment [13] deals with T4, Kappa-type opioid receptor. The experiment is described as follows: kappa opioid receptor blockers, cell-based, luminescence, beta-arrestin, SAR follow-up (AID 2285). The format is functional.
For experiment [14], the target named is Peroxisome proliferator-activated receptor gamma/Nuclear receptor coactivator 3 (Homo sapiens, UniProt P37231). As to the kind of experiment: TR-FRET dose response biochemical High Throughput Screening assay for agonists of the steroid receptor coactivator 3 (SRC-3) recruitment by the peroxisome proliferator-activated receptor gamma (PPAR gamma): non-selective agonists. [Related pubchem assays: 1301 (Confirmation screen.), 1048 (Primary screen.)]. The format is functional.

The target in experiment [15] is Peroxisome proliferator-activated receptor gamma/Nuclear receptor coactivator 1 (Homo sapiens, UniProt P37231). The experiment is described as follows: TR-FRET dose response biochemical High Throughput Screening assay for agonists of the steroid receptor coactivator 1 (SRC-1) recruitment by the peroxisome proliferator-activated receptor gamma (PPAR gamma): non-selective agonists. [Related pubchem assays (depositor defined):AID1300, AID1808, AID504735, AID631]. Format: protein assay. On the technique in general: Time-resolved FRET reads energy transfer from a long-lived donor to a nearby acceptor.

The target in experiment [16] is Peroxisome proliferator-activated receptor gamma/Nuclear receptor coactivator 2 (Homo sapiens, UniProt P37231). The experiment is described as follows: TR-FRET dose response biochemical High Throughput Screening assay for agonists of the steroid receptor coactivator 2 (SRC-2) recruitment by the peroxisome proliferator-activated receptor gamma (PPAR gamma): non-selective agonists. [Related pubchem assays: 1297, 1032 ]. Format: functional.

Experiment [17] concerns the target Eukaryotic translation initiation factor 4H (Homo sapiens, UniProt Q15056). The experiment is described as follows: eIF4H binding inhibition – biochemical, uHTS, fluorescence polarization, translation initiation inhibitor project, primary screen (AID 2012).
Experiment [18] deals with Polyadenylate-binding protein 1 (Homo sapiens, UniProt P11940). As to the kind of experiment: blockers of PABP interaction with poly(A) – biochemical, fluorescence polarization, […] (AID 2014).
Chain of Polyadenylate-binding protein 1 (P11940 whole entry): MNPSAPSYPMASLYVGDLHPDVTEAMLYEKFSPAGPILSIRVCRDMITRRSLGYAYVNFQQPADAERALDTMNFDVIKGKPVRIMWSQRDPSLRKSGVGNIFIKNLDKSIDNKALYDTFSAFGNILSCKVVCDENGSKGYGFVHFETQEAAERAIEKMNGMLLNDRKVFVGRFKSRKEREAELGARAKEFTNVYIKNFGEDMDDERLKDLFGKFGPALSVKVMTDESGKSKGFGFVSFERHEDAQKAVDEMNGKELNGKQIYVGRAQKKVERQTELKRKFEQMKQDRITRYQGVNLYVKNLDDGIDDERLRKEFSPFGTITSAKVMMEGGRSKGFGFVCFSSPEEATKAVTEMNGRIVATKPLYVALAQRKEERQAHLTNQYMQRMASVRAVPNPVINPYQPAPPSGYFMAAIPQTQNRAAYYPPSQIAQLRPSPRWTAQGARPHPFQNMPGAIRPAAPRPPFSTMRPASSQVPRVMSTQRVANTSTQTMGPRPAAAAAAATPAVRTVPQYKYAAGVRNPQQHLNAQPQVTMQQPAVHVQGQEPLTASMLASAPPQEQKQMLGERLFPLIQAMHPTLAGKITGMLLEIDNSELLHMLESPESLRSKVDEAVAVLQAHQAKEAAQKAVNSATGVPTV
Experiment [19] has as its target T5, Mannose-6-phosphate isomerase (Homo sapiens, UniProt P34949).
T5 sequence (P34949 whole entry): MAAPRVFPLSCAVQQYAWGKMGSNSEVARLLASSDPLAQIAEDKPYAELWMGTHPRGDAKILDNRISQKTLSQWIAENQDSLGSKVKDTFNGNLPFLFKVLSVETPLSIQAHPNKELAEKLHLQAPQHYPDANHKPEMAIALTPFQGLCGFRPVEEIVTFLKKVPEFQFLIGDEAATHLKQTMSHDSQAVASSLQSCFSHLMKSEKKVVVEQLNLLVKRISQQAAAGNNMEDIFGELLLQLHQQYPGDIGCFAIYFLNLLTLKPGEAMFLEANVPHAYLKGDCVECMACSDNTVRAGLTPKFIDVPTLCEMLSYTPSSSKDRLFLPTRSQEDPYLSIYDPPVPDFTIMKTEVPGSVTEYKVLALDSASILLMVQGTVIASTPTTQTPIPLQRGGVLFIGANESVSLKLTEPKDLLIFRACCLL
As to the kind of experiment: MPI inhibition at elevated mannose 6-phosphate – biochemical, fluorescence intensity, high mannose 6-phosphate, primary screen (AID 1220).

Structures are written as SMILES. Active and inactive are the calls of the source.

Chain of Cytochrome P450 3A4 (P08684 whole entry): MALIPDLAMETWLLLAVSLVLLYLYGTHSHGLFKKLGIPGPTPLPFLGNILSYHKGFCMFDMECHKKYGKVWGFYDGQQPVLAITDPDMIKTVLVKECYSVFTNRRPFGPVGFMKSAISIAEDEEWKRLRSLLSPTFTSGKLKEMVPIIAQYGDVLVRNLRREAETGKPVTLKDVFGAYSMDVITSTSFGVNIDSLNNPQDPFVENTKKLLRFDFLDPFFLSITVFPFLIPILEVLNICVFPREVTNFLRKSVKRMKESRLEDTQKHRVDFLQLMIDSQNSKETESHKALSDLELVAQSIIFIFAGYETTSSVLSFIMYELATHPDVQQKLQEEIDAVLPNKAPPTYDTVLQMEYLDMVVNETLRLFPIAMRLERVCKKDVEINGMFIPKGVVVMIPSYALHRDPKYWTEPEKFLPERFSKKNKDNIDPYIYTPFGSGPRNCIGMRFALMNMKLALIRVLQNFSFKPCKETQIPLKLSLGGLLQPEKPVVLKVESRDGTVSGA
Chain of Cytochrome P450 2C9 (P11712 whole entry): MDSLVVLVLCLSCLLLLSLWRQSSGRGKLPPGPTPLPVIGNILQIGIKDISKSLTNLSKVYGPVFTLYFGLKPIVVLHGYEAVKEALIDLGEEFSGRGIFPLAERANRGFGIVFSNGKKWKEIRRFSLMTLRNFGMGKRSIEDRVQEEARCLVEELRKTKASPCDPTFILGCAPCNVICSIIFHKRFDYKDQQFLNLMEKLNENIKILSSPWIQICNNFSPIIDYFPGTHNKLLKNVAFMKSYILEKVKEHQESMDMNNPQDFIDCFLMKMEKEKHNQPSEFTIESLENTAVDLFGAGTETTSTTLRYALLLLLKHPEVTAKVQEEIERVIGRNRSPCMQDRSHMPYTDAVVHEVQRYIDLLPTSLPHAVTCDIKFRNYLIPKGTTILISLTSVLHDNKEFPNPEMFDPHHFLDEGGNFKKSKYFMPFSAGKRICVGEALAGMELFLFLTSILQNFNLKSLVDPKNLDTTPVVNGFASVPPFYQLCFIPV
T2 sequence (P35372 whole entry): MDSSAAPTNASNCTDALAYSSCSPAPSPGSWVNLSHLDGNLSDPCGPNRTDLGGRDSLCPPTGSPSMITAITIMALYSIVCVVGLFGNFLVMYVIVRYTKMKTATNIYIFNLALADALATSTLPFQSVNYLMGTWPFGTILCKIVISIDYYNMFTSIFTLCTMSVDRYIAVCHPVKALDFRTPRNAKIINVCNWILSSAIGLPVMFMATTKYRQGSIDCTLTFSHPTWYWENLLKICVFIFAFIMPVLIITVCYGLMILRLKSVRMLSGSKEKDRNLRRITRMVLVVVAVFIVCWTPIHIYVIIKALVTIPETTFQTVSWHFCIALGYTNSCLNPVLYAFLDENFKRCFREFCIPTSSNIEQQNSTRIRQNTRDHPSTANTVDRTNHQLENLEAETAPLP
T3 sequence (P41143 whole entry): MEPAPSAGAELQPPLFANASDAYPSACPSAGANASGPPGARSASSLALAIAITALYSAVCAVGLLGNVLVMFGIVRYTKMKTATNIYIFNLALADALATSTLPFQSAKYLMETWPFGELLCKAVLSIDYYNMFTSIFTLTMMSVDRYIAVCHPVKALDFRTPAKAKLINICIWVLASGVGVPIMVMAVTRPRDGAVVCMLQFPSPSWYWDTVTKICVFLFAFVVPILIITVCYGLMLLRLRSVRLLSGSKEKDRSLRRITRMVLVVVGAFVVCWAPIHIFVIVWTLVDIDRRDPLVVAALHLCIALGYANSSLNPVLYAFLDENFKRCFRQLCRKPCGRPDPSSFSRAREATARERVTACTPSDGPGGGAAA
Chain of Cytochrome P450 2D6 (P10635 whole entry): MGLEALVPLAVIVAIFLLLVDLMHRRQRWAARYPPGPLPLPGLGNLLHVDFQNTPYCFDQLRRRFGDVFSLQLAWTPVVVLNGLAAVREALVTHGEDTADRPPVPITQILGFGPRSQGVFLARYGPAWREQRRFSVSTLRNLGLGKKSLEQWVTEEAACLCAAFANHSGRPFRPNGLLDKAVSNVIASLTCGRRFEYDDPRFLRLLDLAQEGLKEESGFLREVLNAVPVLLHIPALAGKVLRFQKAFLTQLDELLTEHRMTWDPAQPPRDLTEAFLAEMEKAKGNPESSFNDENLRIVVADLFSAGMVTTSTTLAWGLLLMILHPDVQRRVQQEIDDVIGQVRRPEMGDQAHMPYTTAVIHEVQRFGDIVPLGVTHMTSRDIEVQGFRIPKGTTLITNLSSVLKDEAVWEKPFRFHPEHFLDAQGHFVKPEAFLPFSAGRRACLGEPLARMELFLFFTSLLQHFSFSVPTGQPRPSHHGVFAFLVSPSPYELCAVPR

On to `CCOC(=O)OCC1OC(C#Cc2ccc(Br)cc2)C=CC1OC(=O)OCC` (configuration not stated), for which the results for the AC50 at Cytochrome P450 3A4 and at Cytochrome P450 2C9 were 3.98 µM (inconclusive) and 2.51 µM (inconclusive), respectively.
Regarding `CC1CCC2C(=O)OC(CN3C(=O)c4ccccc4C3=O)CN2C1c1ccc(Br)cc1` (configuration not stated), the AC50 is 3.98 µM (inconclusive) on Cytochrome P450 3A4, 3.16 µM (inconclusive) at Cytochrome P450 2D6 and 3.16 µM (inconclusive) on Cytochrome P450 2C9.
With `Cc1ccc(/C=C2/SC(=S)N(c3ccc(S(=O)(=O)Nc4nccs4)cc3)C2=O)cc1`, the IC50 on SUMO-activating enzyme [1] is 38.6 µM (active); in the experiment with HEK293 [2], 17.8 µM (active); at SUMO-activating enzyme [3], 1.58 µM (active); in the experiment with HEK293 [5], > 20 µM (inactive); with HEK293 [6] it was 14.2 µM (inactive). The EC50 in the experiment with HEK293 [4] is > 20 µM (inactive).
For `Cc1cc(/C=C2/C(=O)N(C)C(=S)N2C)ccc1N1CCCC1`, on Troponin, cardiac muscle, the EC50 is 1.55 µM (active).
For `O=C(NC(NC(=S)Nc1ccc(Br)cc1)C(Cl)(Cl)Cl)OCc1ccccc1` (configuration not stated), the EC50 (on Mu-type opioid receptor [7]; in [9]; in [10]) was > 32 µM (inactive) in each case. Also, the IC50 in experiment [8] is > 32 µM (inactive); on Mu-type opioid receptor [11] it was > 32 µM (inactive); in [12], > 32 µM (inactive); in experiment [13], > 10 µM (inactive).
In the case of `CCn1c(=O)cc(SCC(=O)Nc2ccc(Cl)cc2)c2ccccc21`, the 50% effective concentration (EC50) in [14] was > 79.4 µM (not active); in [15], > 79.4 µM (inactive); in experiment [16] it was > 79.4 µM (not active).
Turning to `CCn1c(SCC(=O)N/N=C/C=C\c2ccco2)nc2ccccc21`, the results for the IC50 in experiment [17] and in experiment [18] were 12.3 µM (active) and 68.8 µM (active), respectively.
As for `CCN1CCc2c(C#N)c(NCc3ccccc3)nc(NCCO)c2C1`, the IC50 in [17] is > 100 µM (inactive); in [19], > 50 µM (not active); in [18], > 100 µM (inactive).

As usually defined, the IC50 is the concentration at which inhibition is half-maximal. In general, EC50 refers to the midpoint of the concentration-response curve.
